{"source": "patent US20200268864A1", "about": "“CANCER VACCINE COMPOSITIONS AND METHODS FOR USING SAME TO TREAT CANCER” (Dana-Farber Cancer Institute, Inc., priority 2017, published 2020)", "key": {"[1]": {"tested_on": "STING pathway in BMDCs co-cultured with ID8 cells", "test": "Co-culture of BMDCs with drug-treated WT or Brca1-null ID8 cells", "type": "cell-based, mouse", "conditions": "co-cultured with drug-treated Brca1-null ID8 cells", "experimental": "Brca-1 deficient ID8 cells were generated using a CRISPR double nickase plasmid. ID8 cells cultured in a 6-well plate were transfected with 2 μg/well of BRCA1 double nickase plasmid (sc419362-NIC, Santa Cruz Biotechnology) or control double nickase plasmid (SC-437281, Santa Cruz Biotechnology) using lipofectamine 3000 (Invitrogen). 48 hrs post-transfection, cells were passaged onto a 10 cm plate. After 24 h, puromycin (3 μg/mL) was added to the culture for selection. Puromycin resistant cells were selected and expanded. Due to a lack of a reliable mouse BRCA1 antibody for Western blot, cells were analyzed by DNA sequencing to confirm the disruption of functional Brca1 allele. To generate ID8 tumors, cultured ID8 cells were harvested and resuspended in serum free DMEM. Cells were then mixed with Matrigel (Corning). A total volume of 0.1 ml containing 5×10^6 ID8 cells and 40% Matrigel were injected subcutaneously into the flank of C57BL/6J mice.\nBone marrow cells were isolated from FVB/NJ mice and cultured in RPMI-1640 containing 10% FBS and 20 ng/ml GM-CSF. BMDCs (bone marrow derived dendritic cells) were harvested for in vitro co-culture assay on day 7 to day 10. About 3×10^5 PBM or PPM tumor cells were cultured in a 6-well plate for 24 hr. and then treated with DMSO or olaparib. […]"}, "[2]": {"tested_on": "STING pathway in BMDCs co-cultured with PPM cells", "test": "Co-culture of BMDCs with olaparib-treated PPM tumor cells", "type": "cell-based, mouse", "experimental": "Blood was obtained by retro-orbital sampling at intermediate time points or experimental end points. Blood cells and plasma/sera were separated by centrifugation at 1,500×g for 5 min. at 4° C. Plasmaisera were sent out to Eve Technologies for cytokine array analysis (Chemokine Array 31-Plex and Mouse Procarta IFN 2-plex Featured Assay). Plasma/sera were applied to ELISA according to manufacturer's instructions. For in vitro experiments, cell culture supernatants were obtained by centrifugation at 1,500×g for 5 min. at 4° C. to remove all debris and cells, and were then subjected to ELISA analysis. IFN-β was detected using the LEGEND MAX™ Mouse IFN-β ELISA Kit (BioLegend).\nBone marrow cells were isolated from FVB/NJ mice and cultured in RPMI-1640 containing 10% FBS and 20 ng/ml GM-CSF. BMDCs (bone marrow derived dendritic cells) were harvested for in vitro co-culture assay on day 7 to day 10. About 3×10^5 PBM or PPM tumor cells were cultured in a 6-well plate for 24 hr. and then treated with DMSO or olaparib. After 24 hr incubation with DMSO, olaparib, or olaparib in combination with other drugs (cell cycle inhibitor or apoptosis inhibitor), drugs were removed and tumor cells were washed twice with PBS. BMDCs were added and co-cultured with PBM or PPM cells at a ratio of 1:1 in 1.5 ml culture media in the presence of GM-CSF (20 ng/ml) and lipofectamine (2 μl) for 24 hr. […]"}, "[3]": {"tested_on": "STING pathway in PPM tumors", "test": "STING pathway activation in PPM tumors", "conditions": "mouse, in vivo", "experimental": "Tumors were first mechanically disrupted by chopping, then chemically digested in collagenase buffer (8 mL DMEM, 0.1 mL 1M HEPES, 0.5 mL FBS, 0.2 mL Pen/Strep, 1 m, 10× collagenase/hyaluronidase (Stemcell Technologies), 0.2 mL of 1 mg/mL DNase I (Stemcell Technologies) at 37° C. for 45 min. Single-cell suspensions of spleen and lymph nodes were obtained by mashed through a 70 um strainer using the plunger of a 3 mL or 5 mL syringe. Single cells suspensions were treated with red blood lysis buffer (4 mL NH4Cl+1 mL PBS with 2% calf serum) and washed with FACS buffer. Single cells suspensions were incubated with LIVE/DEAD Fixable Aqua Dead Cell Stain (Life Technologies, Cat # L34965) for 30 min and then blocked with anti-CD16/32 (BioLegend, clone 93) for 20 min on ice. Samples were then incubated with appropriate antibodies for 30 min. on ice. The Foxp3 staining buffer set (eBioscience, Cat #00-5523-00) was applied for intracellular markers staining. For the intracellular cytokine analysis, cells were stimulated with Leukocyte Activation Cocktail (BD Biosciences, Cat #550583) at 37° C. for 5 hours prior to FACS staining. […] Flow cytometry was performed on an LSR II (BD Biosciences) or LSRFortessa™ HTS (BD Biosciences) at the DFCI flow cytometry core facility, and all the data were analyzed using FlowJo software. […]"}, "[4]": {"tested_on": "PBM and PPM tumor cells", "test": "Western blot of cGAS-STING signaling in tumor cells", "type": "cell-based, mouse"}}, "note": "Entries after “also recorded” stand apart in the source; their conditions may differ."}
{"compound": "O=C(c1cc(Cc2n[nH]c(=O)c3ccccc23)ccc1F)N1CCN(C(=O)C2CC2)CC1", "note": "[olaparib, Olaparib]", "values": [{"measurement": "p-TBK1+p-IRF3+ and IFN-β (STING pathway activation) in wild-type BMDCs", "setting": "[1]", "result": "Increased; also recorded: activation of STING pathway occurred"}, {"measurement": "STING-dependent activation of BMDCs (IFNβ and CXCL10 expression)", "setting": "[2]", "result": "not observed"}, {"measurement": "hallmarks of STING pathway activation in PPM tumors", "setting": "[3]", "result": "not observed"}, {"measurement": "STING signaling activity in tumor cells", "setting": "[4]", "result": "little STING signaling activity"}]}
